Experimental data reported in US7335771B2, “Quinacridone derivatives as labelling reagents for fluorescence detection of biological materials” (GE Healthcare UK Limited, priority 2001, dated 2008).
Counter-ions that a name gives are not always drawn. Each block holds one compound with its values, some of them ahead of it.

Tests used:
Type in all cases: physicochemical
[1] = Fluorescence lifetime, time-correlated single photon counting (excitation 500 nm, detection 550 nm); conditions: excited at 500 nm, detection at 550 nm
Experimental: FIG. 2 is a plot showing the fluorescence lifetimes of certain dyes according to the invention. Fluorescence lifetimes of a range of dyes were determined by a time-correlated single photon counting technique using an Edinburgh Instruments FL900 CDT Time-Resolved Fluorometer. Samples were excited at 500 nm using a hydrogen-filled flashlamp. Detection was at 550 nm.

[2] = Fluorescence of the dinitro dye in solvents; conditions: in DMF, DMSO and methanol
[3] = Fluorescence lifetimes of dye and its ovalbumin conjugate in PBS
Experimental: The fluorescence lifetimes of 6-{7,14-dioxo-2,9-disulpho-7,14-dihydro-12H-quino[2,3-b]acridin-5-yl}hexanoic acid and its conjugate with ovalbumin (Conjugate A) was determined in PBS.

Lifetime ([1]; solvent CH2Cl2/MeOH): 16.9 nsec
SMILES: CCCCCCn1c2ccc(Br)cc2c(=O)c2cc3c(cc21)c(=O)c1cc(Br)ccc1n3CCCCCC [2,9-Dibromo-5,12-di-n-hexylquinacridone, 2,9-dibromo-5,12-dihexylquinacridone]

Lifetime ([1]; solvent water): 20.6 nsec
SMILES: O=c1c2cc(S(=O)(=O)O)ccc2[nH]c2cc3c(=O)c4cc(S(=O)(=O)O)ccc4[nH]c3cc12 [2,9-Quinacridone disulphonic acid, Quinacridone-2,9-disulphonic acid, (di-potassium salt)]

Lifetime ([1]; solvent CH2Cl2/MeOH): 20.4 nsec
SMILES: CCCCCCn1c2ccccc2c(=O)c2cc3c(cc21)c(=O)c1cc(Br)ccc1n3CCCCCC [2-Bromo-5,12-di-n-hexylquinacridone, 2-Bromo-5,12-dihexylquinacridone]

Lifetime ([1]; solvent CH2Cl2/MeOH): 26.5 nsec
SMILES: CCCCCCn1c2ccccc2c(=O)c2cc3c(cc21)c(=O)c1ccccc1n3CCCCCC [5,12-Di-n-hexylquinacridone, 5,12-Dihexylquinacridone]

Lifetime ([1]; solvent MeOH): 22.3 nsec
SMILES: CCOC(=O)CCCCCn1c2ccc(Cl)cc2c(=O)c2cc3c(cc21)c(=O)c1cc(Cl)ccc1n3CCCCCC(=O)OCC [6-{2,9-Dichloro-12-(5-carboxypentyl)-7,14-dioxo-7,14-dihydro-12H-quino[2,3-b]acridin-5-yl}hexanoic acid, diethyl ester]

Lifetime ([1]; solvent MeOH): 21.4 nsec
SMILES: CCOC(=O)CCCCCn1c2ccc(F)cc2c(=O)c2cc3c(cc21)c(=O)c1cc(F)ccc1n3CCCCCC(=O)OCC [6-{2,9-Difluoro-12-(5-carboxypentyl)-7,14-dioxo-7,14-dihydro-12H-quino[2,3-b]acridin-5-yl}hexanoic acid, diethyl ester]

Lifetime ([1]; solvent EtOH): 14.0 nsec
SMILES: CCOC(=O)CCCCCn1c2ccc(OC)cc2c(=O)c2cc3c(cc21)c(=O)c1cc(OC)ccc1n3CCCCCC(=O)OCC [6-{2,9-Dimethoxy-12-(5-carboxypentyl)-7,14-dioxo-7,14-dihydro-12H-quino[2,3-b]acridin-5-yl}hexanoic acid, diethyl ester]

SMILES: CCOC(=O)CCCCCn1c2ccc([N+](=O)[O-])cc2c(=O)c2cc3c(cc21)c(=O)c1cc([N+](=O)[O-])ccc1n3CCCCCC(=O)OCC [6-{2,9-Dinitro-12-(5-carboxypentyl)-7,14-dioxo-7,14-dihydro-12H-quino[2,3-b]acridin-5-yl}hexanoic acid, diethyl ester]
Lifetime ([1]; solvent CH2Cl2): 17.0 nsec | Fluorescence [2]: very weak or is non-fluorescent

Lifetime ([1]; solvent water): 18.0 nsec
SMILES: CCOC(=O)CCCCCn1c2ccc(Br)cc2c(=O)c2cc3c(cc21)c(=O)c1cc(Br)ccc1n3CCCCCC(=O)OCC [6-{2,9-dibromo-12-(5-carboxypentyl)-7,14-dioxo-7,14-dihydro-12H-quino[2,3-b]acridin-5-yl}hexanoic acid, diethyl ester]

Lifetime ([1]; solvent MeOH): 21.9 nsec
SMILES: CCOC(=O)CCCCCn1c2ccc(C)cc2c(=O)c2cc3c(cc21)c(=O)c1cc(C)ccc1n3CCCCCC(=O)OCC [6-{2,9-dimethyl-12-(5-carboxypentyl)-7,14-dioxo-7,14-dihydro-12H-quino[2,3-b]acridin-5-yl}hexanoic acid, diethyl ester]

Lifetime ([1]; solvent water): 20.1 nsec | Lifetime (nsec) [3]: 20.1 nsec
SMILES: O=C(O)CCCCCn1c2ccc(S(=O)(=O)O)cc2c(=O)c2cc3[nH]c4ccc(S(=O)(=O)O)cc4c(=O)c3cc21 [6-{7,14-Dioxo-2,9-disulpho-7,14-dihydro-12H-quino[2,3-b]acridin-5-yl}hexanoic acid]

Lifetime ([1]; solvent water): 22.7 nsec
SMILES: CCn1c2ccc(S(=O)(=O)O)cc2c(=O)c2cc3c(cc21)c(=O)c1cc(S(=O)(=O)O)ccc1n3CCCCCC(=O)O [6-{12-ethyl-7,14-dioxo-2,9-disulpho-7,14-dihydro-12H-quino[2,3-b]acridin-5-yl}hexanoic acid]

Lifetime ([1]; solvent water): 22.1 nsec
SMILES: O=c1c2cc3[nH]c4c(S(=O)(=O)O)cc(S(=O)(=O)O)cc4c(=O)c3cc2[nH]c2c(S(=O)(=O)O)cc(S(=O)(=O)O)cc12 [Quinacridone-2,4,9,11-tetrasulphonic acid (tetra-potassium salt)]

Lifetime ([1]; solvent DMSO): 22 nsec
SMILES: O=c1c2ccccc2[nH]c2cc3c(=O)c4ccccc4[nH]c3cc12 [Quinacridone]
